Data from patent US9518081B2, “Peptide libraries” (BICYCLE THERAPEUTICS LIMITED, priority 2009, dated 2016).
*1 amine or outer side, *2 acyl side, *3 side chain or, on linkers, in order; H or OH if unused. Where a SMILES comes first, the peptide text is derived from it. Bridges are numbered along the chain shown (N, C = ends). TBMB = c1c(C[*:1])cc(C[*:3])cc1C[*:2]

Test system: chymotrypsin
Experiment: Phage ELISA after DTT reduction and chymotrypsin treatment (resistance to proteolysis)
Assay type: in vitro ADME
Settings: 5 mM DTT 20 min, chymotrypsin 50 ug/ml 2 min
Description: 0.6 μg/mL of biotinylated MDM2 peptide (res 2-125) was immobilized on a streptavidin-coated plate (Roche). Plate was blocked with PBSM (but 4% in milk powder) and linear or TBMB-conjugated phage (10^7 TU/well in PBSM in the presence or absence of 5 mM DTT) was incubated on the plate for 50 min at room temperature. Similarly, phage was first reduced in 5 mM DTT for 20 min, treated with chymotrypsin (50 ug/ml in PBS) for 2 min, mixed with PBSM (final concentration) and incubated on the plate for 50 min at room temperature. Phage was detected using an anti-M13-HRP monoclonal antibody (1:5000, Amersham).
Note that 5 mM DTT can reduce the disulphide bonds of chymotrypsin leading to its inactivation as a protease. […] In other experiments we have used up to 0.2 mM-5 mM TCEP in the presence of chymotrypsin (0.1 mg/ml-1 mg/ml) for 2 minutes at room temperature in PBS. These conditions also allowed us to distinguish between the linear and cyclic peptides on phage.

CC(C)C[C@@H]1NC(=O)[C@H](CCC(=O)O)NC(=O)[C@@H](NC(=O)[C@@H](N)CO)CSCc2cc3cc(c2)CSC[C@H](NC(=O)[C@H](CCCCN)NC(=O)[C@@H]2CCCN2C(=O)[C@H](CC(N)=O)NC(=O)[C@H](Cc2c[nH]c4ccccc24)NC1=O)C(=O)N[C@@H](CCCNC(=N)N)C(=O)N[C@@H](CC(C)C)C(=O)N[C@@H](CO)C(=O)N1CCC[C@H]1C(=O)N[C@@H](Cc1ccccc1)C(=O)N[C@@H](CCC(=O)O)C(=O)N[C@H](C(=O)N[C@@H](CCCCN)C(=O)NCC(=O)O)CSC3 [PEP10] (H-SCELWNPKCRLSPFECKG-OH; linker 2-9-16 via TBMB (inferred))
resistance of MDM2 binding to proteolysis: resistant to proteolysis

CC(C)[C@@H]1NC(=O)[C@@H](NC(=O)[C@@H](N)CO)CSCc2cc3cc(c2)CSC[C@H](NC(=O)[C@H]([C@@H](C)O)NC(=O)[C@H](Cc2c[nH]c4ccccc24)NC(=O)CNC(=O)[C@H](Cc2ccccc2)NC(=O)[C@H](CCCNC(=N)N)NC1=O)C(=O)N[C@@H](CC(=O)O)C(=O)N[C@@H](CC(N)=O)C(=O)N[C@@H](CO)C(=O)N[C@@H](Cc1c[nH]c2ccccc12)C(=O)N[C@@H](Cc1c[nH]cn1)C(=O)NCC(=O)N[C@H](C(=O)N[C@@H](CCCCN)C(=O)NCC(=O)O)CSC3 [PEP48] (H-SCVRFGWTCDNSWHGCKG-OH; linker 2-9-16 via TBMB (inferred))
resistance of MDM2 binding to proteolysis: resistant to proteolysis
